According to patent publication US6906097B2, “8-azaprostaglandin analogs as agents for lowering intraocular pressure” (Allergan, Inc., priority 2002, dated 2005):

Tests used:
hEP4 = molecular target: T1, hEP4 (Homo sapiens, UniProt P35408); assay: Functional data, human recombinant EP4 receptor stable transfectants; assay type: cell-based
T1 construct: expressed in transfected cells
Protocol: Human Recombinant EP1, EP2, EP3, EP4, FP, TP, IP and DP Receptors: Stable Transfectants
Plasmids encoding the human EP1, EP2, EP3, EP4, FP, TP, IP and DP receptors were prepared by cloning the respective coding sequences into the eukaryotic expression vector pCEP4 (Invitrogen). The pCEP4 vector contains an Epstein Barr virus (EBV) origin of replication, which permits episomal replication in primate cell lines expressing EBV nuclear antigen (EBNA-1). It also contains a hygromycin resistance gene that is used for eukaryotic selection. […] HEK-293 cells were grown in DMEM with 10% fetal bovine serum (FBS), 250 μg ml^−1 G418 (Life Technologies) and 200 μg ml^−1 gentamicin or penicillin/streptomycin.
For transfection, the cells were grown to 50-60% confluency on 10 cm plates. The plasmid pCEP4 incorporating cDNA inserts for the respective human prostanoid receptor (20 μg) was added to 500 μl of 250 mM CaCl2. […] After 30 min, 9 ml DMEM were added to the mixture. The DNA/DMEM/calcium phosphate mixture was then added to the cells, which had been previously rinsed with 10 ml PBS. The cells were then incubated for 5 hr at 37° C. in humidified 95% air/5% CO2. The calcium phosphate solution was then removed and the cells were treated with 10% glycerol in DMEM for 2 min. The glycerol solution was then replaced by DMEM with 10% FBS. The cells were incubated overnight and the medium was replaced by DMEM/10% FBS containing 250 μg ml^−1 G418 and penicillin/streptomycin. The following day hygromycin B was added to a final concentration of 200 μg ml^−1.
Ten days after transfection, hygromycin B resistant clones were individually selected and transferred to a separate well on a 24 well plate. At confluence each clone was transferred to one well of a 6 well plate, and then expanded in a 10 cm dish. Cells were maintained under continuous hygromycin selection until use.

hEP3D = molecular target: T2, hEP3D (Homo sapiens, UniProt P43115); assay: Radioligand binding, hEP3D; conditions: [3H]PGE2 competition
T2 construct: expressed in transfected cells; host or cells: COS-7, transient transfection, plasma membrane fraction
T2 sequence (P43115 1-374 isoform P43115-4): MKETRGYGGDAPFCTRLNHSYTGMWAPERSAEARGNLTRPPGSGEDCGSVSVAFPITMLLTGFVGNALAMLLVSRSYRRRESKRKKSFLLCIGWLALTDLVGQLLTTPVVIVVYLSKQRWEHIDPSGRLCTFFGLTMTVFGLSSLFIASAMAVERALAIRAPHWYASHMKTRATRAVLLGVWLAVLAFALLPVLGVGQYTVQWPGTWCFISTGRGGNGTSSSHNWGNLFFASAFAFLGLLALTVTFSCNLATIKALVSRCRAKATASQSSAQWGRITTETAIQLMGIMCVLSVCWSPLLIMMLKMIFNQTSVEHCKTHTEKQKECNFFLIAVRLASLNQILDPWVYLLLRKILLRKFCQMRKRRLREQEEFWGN
Protocol: For radioligand binding on the transient transfectants, plasma membrane fraction preparation was as follows. COS-7 cells were washed with TME buffer, scraped from the bottom of the flasks, and homogenized for 30 sec using a Brinkman PT 10/35 polytron. TME buffer was added to achieve a final 40 ml volume in the centrifuge tubes. The composition of TME is […]; 10N HCl is added to achieve a pH of 7.4.
The cell homogenate was centrifuged at 19000 rpm for 20 min at 4° C. using a Beckman Ti-60 rotor. The resultant pellet was resuspended in TME buffer to give a final 1 mg/ml protein concentration, as determined by Biorad assay. Radioligand binding assays were performed in a 200 μl volume.
The binding of [^3H] PGE2 (specific activity 165 […]) at EP3D, receptors and [^3H]-SQ29548 (specific activity 41.5 Ci mmol^−1) at TP receptors were determined in duplicate in at least three separate experiments. Radiolabeled PGE2 was purchased from Amersham, radiolabeled SQ29548 was purchased from New England Nuclear. […] Competition studies were performed using a final concentration of 2.5 or 5 nM [^3H]-PGE2, or 10 nM [^3H]-SQ 29548 and non-specific binding determined with 10 μM of the respective unlabeled prostanoid. […]

T1 sequence (P35408 whole entry): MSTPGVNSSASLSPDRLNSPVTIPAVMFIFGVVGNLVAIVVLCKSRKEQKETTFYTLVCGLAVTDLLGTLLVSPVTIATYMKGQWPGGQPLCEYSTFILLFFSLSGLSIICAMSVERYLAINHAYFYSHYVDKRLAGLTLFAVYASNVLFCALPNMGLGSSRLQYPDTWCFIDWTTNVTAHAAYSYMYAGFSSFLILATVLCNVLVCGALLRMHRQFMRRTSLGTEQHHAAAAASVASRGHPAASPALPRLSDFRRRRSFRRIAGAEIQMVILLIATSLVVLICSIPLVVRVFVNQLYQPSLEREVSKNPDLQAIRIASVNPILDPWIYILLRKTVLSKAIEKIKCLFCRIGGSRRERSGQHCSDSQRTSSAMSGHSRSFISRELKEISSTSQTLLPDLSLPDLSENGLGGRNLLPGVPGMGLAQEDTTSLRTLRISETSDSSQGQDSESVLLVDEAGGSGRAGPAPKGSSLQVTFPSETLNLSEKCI

O=C(O)CCCCCCN1C(=O)CC[C@@H]1CCC(O)Cc1cccc(Cl)c1 (stereo partly drawn) [Example 1, 7-[2S-[3R-Hydroxy-4-(chloro-phenyl)-butyl]-5-oxo-pyrrolidin-1-yl]-heptanoic acid]
EC50 (hEP4): 0.7 nM
IC50 (hEP3D): 12 nM
